Numbered stars: 1 amine (or outer) side, 2 acyl side, 3 side chain; on linkers, the order of the positions; unused ones are H or OH. Bridge positions count the residues as written; N and C are the ends. Side chains are listed from the residue outwards. Peptide text beside a SMILES is read from it. * marks the point of attachment. C20 diacid = O=C(O)CCCCCCCCCCCCCCCCCCC(=O)*; γGlu = O=C(O)[C@H](CCC(=O)[*:2])N[*:1]
Key:
[1] = test system: Sprague Dawley (SD) rats; assay: ASSAY (I) efficacy testing on appetite (food intake) using an ad libitum fed rat model; assay type: in vivo; conditions: rat
How it was run: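 Ad libitum fed SD rats (200–250 g) were housed singly on a reversed light/dark cycle and given one 0.01–3 mg/kg dose ip, po or sc just before lights-off, with 5–8 per dose group plus vehicle controls. Food intake was recorded hourly for 7 h, then at 24 h and sometimes 48 h; Grubbs outliers were excluded.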

[2] = ASSAY (III) ThT fibrillation assay for physical stability; assay type: physicochemical
How it was run: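 Formulations with 1 μM ThT, pH adjusted as required, incubated at 37 °C with 960 rpm orbital shaking; fluorescence (ex 444/em 485 nm) read every 20 min. Fibrillation reported as mean ThT fluorescence ± SD of 4–8 replicates at time points; polypeptide concentration measured by reverse-phase HPLC before and after, post-centrifugation.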

| ThT pH 4.0 lag time (h) [2] [h] | SMILES | Food intake reduction 0-24 h 30 nmol/kg (%) ([1]; 0-24 h) | Food intake reduction 24-48 h 30 nmol/kg (%) ([1]; 24-48 h) | Food intake reduction 0-24 h 3 nmol/kg (%) ([1]; 3 nmol/kg, 0-24 h) | Food intake reduction 24-48 h 3 nmol/kg (%) ([1]; 3 nmol/kg, 24-48 h) |
| --- | --- | --- | --- | --- | --- |
| 45 | CC[C@H](C)[C@H](NC(=O)[C@H](C)NC(=O)CNC(=O)[C@H](Cc1ccccc1)NC(=O)[C@H](CC(N)=O)NC(=O)[C@@H]1CCCN1C(=O)[C@H](CO)NC(=O)[C@H](CO)NC(=O)[C@H](Cc1c[nH]cn1)NC(=O)[C@H](CCCNC(=N)N)NC(=O)[C@H](CC(C)C)NC(=O)[C@H](Cc1ccccc1)NC(=O)[C@H](CC(=O)O)NC(=O)[C@H](C)NC(=O)[C@H](CC(C)C)NC(=O)[C@H](CCCNC(=N)N)NC(=O)[C@H](CCC(N)=O)NC(=O)[C@@H](NC(=O)[C@H](C)NC(=O)[C@@H]1CSSC[C@H](NC(=O)[C@@H](N)CCCCNC(=O)CC[C@H](NC(=O)CC[C@H](NC(=O)CCCCCCCCCCCCCCCCCCC(=O)O)C(=O)O)C(=O)O)C(=O)N[C@@H](CC(N)=O)C(=O)N[C@@H]([C@@H](C)O)C(=O)N[C@@H](C)C(=O)N[C@@H]([C@@H](C)O)C(=O)N1)[C@@H](C)O)C(=O)N1CCC[C@H]1C(=O)N[C@@H](CO)C(=O)N[C@@H](CO)C(=O)N[C@H](C(=O)N[C@@H](CC(N)=O)C(=O)N[C@H](C(=O)NCC(=O)N1CCC[C@H]1C(=O)N[C@@H](CCCNC(=N)N)C(=O)N[C@H](C(=O)N[C@@H](Cc1ccc(O)cc1)C(N)=O)[C@@H](C)O)C(C)C)[C@@H](C)O [Example 130] (H-K([γGlu-γGlu-C20 diacid])CNTATCATQRLADFLRHSSPNFGAIPSSTNVGPRTY-NH2; disulfide 2-7 (inferred); N-terminus assumed) | 80 | 27 |  |  |
| 35 | CC[C@H](C)[C@H](NC(=O)[C@H](C)NC(=O)CNC(=O)[C@H](Cc1ccccc1)NC(=O)[C@H](CC(N)=O)NC(=O)[C@@H]1CCCN1C(=O)[C@H](CO)NC(=O)[C@H](CO)NC(=O)[C@H](Cc1c[nH]cn1)NC(=O)[C@H](CCCNC(=N)N)NC(=O)[C@H](CC(C)C)NC(=O)[C@H](Cc1ccccc1)NC(=O)[C@H](CCC(=O)O)NC(=O)[C@H](C)NC(=O)[C@H](CC(C)C)NC(=O)[C@H](CCCNC(=N)N)NC(=O)[C@H](CCC(N)=O)NC(=O)[C@@H](NC(=O)[C@H](C)NC(=O)[C@@H]1CSSC[C@H](NC(=O)[C@@H](N)CCCCNC(=O)CC[C@H](NC(=O)CCCCCCCCCCCCCCCCCCC(=O)O)C(=O)O)C(=O)N[C@@H](CC(N)=O)C(=O)N[C@@H]([C@@H](C)O)C(=O)N[C@@H](C)C(=O)N[C@@H]([C@@H](C)O)C(=O)N1)[C@@H](C)O)C(=O)N1CCC[C@H]1C(=O)N[C@@H](CO)C(=O)N[C@@H](CO)C(=O)N[C@H](C(=O)N[C@@H](CC(N)=O)C(=O)N[C@H](C(=O)NCC(=O)N1CCC[C@H]1C(=O)N[C@@H](CCC(=O)O)C(=O)N[C@H](C(=O)N[C@@H](Cc1ccc(O)cc1)C(N)=O)[C@@H](C)O)C(C)C)[C@@H](C)O [Example 109] (H-K([γGlu-C20 diacid])CNTATCATQRLAEFLRHSSPNFGAIPSSTNVGPETY-NH2; disulfide 2-7 (inferred); N-terminus assumed) | 89 | 91 | 57 | 50 |
| 35 | CC[C@H](C)[C@H](NC(=O)[C@H](C)NC(=O)CNC(=O)[C@H](Cc1ccccc1)NC(=O)[C@H](CC(N)=O)NC(=O)[C@@H]1CCCN1C(=O)[C@H](CO)NC(=O)[C@H](CO)NC(=O)[C@H](Cc1c[nH]cn1)NC(=O)[C@H](CCCNC(=N)N)NC(=O)[C@H](CC(C)C)NC(=O)[C@H](Cc1ccccc1)NC(=O)[C@H](CC(N)=O)NC(=O)[C@H](C)NC(=O)[C@H](CC(C)C)NC(=O)[C@H](CCCNC(=N)N)NC(=O)[C@H](CCC(N)=O)NC(=O)[C@@H](NC(=O)[C@H](C)NC(=O)[C@@H]1CSSC[C@H](NC(=O)[C@H](CCCCN)NC(=O)CC[C@H](NC(=O)CCCCCCCCCCCCCCCCCCC(=O)O)C(=O)O)C(=O)N[C@@H](CC(N)=O)C(=O)N[C@@H]([C@@H](C)O)C(=O)N[C@@H](C)C(=O)N[C@@H]([C@@H](C)O)C(=O)N1)[C@@H](C)O)C(=O)N1CCC[C@H]1C(=O)N[C@@H](CO)C(=O)N[C@@H](CO)C(=O)N[C@H](C(=O)N[C@@H](CC(N)=O)C(=O)N[C@H](C(=O)NCC(=O)N[C@@H](CO)C(=O)N[C@@H](CCCCN)C(=O)N[C@H](C(=O)N[C@@H](Cc1ccc(O)cc1)C(N)=O)[C@@H](C)O)C(C)C)[C@@H](C)O [Example 34] | 37 | 25 |  |  |
| 26 | CC[C@H](C)[C@H](NC(=O)[C@H](C)NC(=O)CNC(=O)[C@H](Cc1ccccc1)NC(=O)[C@H](CC(N)=O)NC(=O)[C@@H]1CCCN1C(=O)[C@H](CO)NC(=O)[C@H](CO)NC(=O)[C@H](Cc1c[nH]cn1)NC(=O)[C@H](CCCNC(=N)N)NC(=O)[C@H](CC(C)C)NC(=O)[C@H](Cc1ccccc1)NC(=O)[C@H](Cc1c[nH]cn1)NC(=O)[C@H](C)NC(=O)[C@H](CC(C)C)NC(=O)[C@H](CCCNC(=N)N)NC(=O)[C@H](CCC(N)=O)NC(=O)[C@@H](NC(=O)[C@H](C)NC(=O)[C@@H]1CSSC[C@H](NC(=O)[C@@H](N)CCCCNC(=O)CC[C@H](NC(=O)CCCCCCCCCCCCCCCCCCC(=O)O)C(=O)O)C(=O)N[C@@H](CC(N)=O)C(=O)N[C@@H]([C@@H](C)O)C(=O)N[C@@H](C)C(=O)N[C@@H]([C@@H](C)O)C(=O)N1)[C@@H](C)O)C(=O)N1CCC[C@H]1C(=O)N[C@@H](CO)C(=O)N[C@@H](CO)C(=O)N[C@H](C(=O)N[C@@H](CC(N)=O)C(=O)N[C@H](C(=O)NCC(=O)N1CCC[C@H]1C(=O)N[C@@H](CC(N)=O)C(=O)N[C@H](C(=O)N[C@@H](Cc1ccc(O)cc1)C(N)=O)[C@@H](C)O)C(C)C)[C@@H](C)O [Example 67] (H-K([γGlu-C20 diacid])CNTATCATQRLAHFLRHSSPNFGAIPSSTNVGPNTY-NH2; disulfide 2-7 (inferred); N-terminus assumed) | 47 | 0 |  |  |
| 45 | CC[C@H](C)[C@H](NC(=O)[C@H](C)NC(=O)CNC(=O)[C@H](Cc1ccccc1)NC(=O)[C@H](CC(N)=O)NC(=O)[C@@H]1CCCN1C(=O)[C@H](CO)NC(=O)[C@H](CO)NC(=O)[C@H](Cc1c[nH]cn1)NC(=O)[C@H](CCCNC(=N)N)NC(=O)[C@H](CC(C)C)NC(=O)[C@H](Cc1ccccc1)NC(=O)[C@H](CCC(=O)O)NC(=O)[C@H](C)NC(=O)[C@H](CC(C)C)NC(=O)[C@H](CCCNC(=N)N)NC(=O)[C@H](CCC(N)=O)NC(=O)[C@@H](NC(=O)[C@H](C)NC(=O)[C@@H]1CSSC[C@H](NC(=O)[C@@H](N)CCCCNC(=O)CC[C@H](NC(=O)CCCCCCCCCCCCCCCCCCC(=O)O)C(=O)O)C(=O)N[C@@H](CC(N)=O)C(=O)N[C@@H]([C@@H](C)O)C(=O)N[C@@H](C)C(=O)N[C@@H]([C@@H](C)O)C(=O)N1)[C@@H](C)O)C(=O)N1CCC[C@H]1C(=O)N[C@@H](CO)C(=O)N[C@@H](CO)C(=O)N[C@H](C(=O)N[C@@H](CC(N)=O)C(=O)N[C@H](C(=O)NCC(=O)N1CCC[C@H]1C(=O)N[C@@H](CCCNC(=N)N)C(=O)N[C@H](C(=O)N[C@@H](Cc1ccc(O)cc1)C(N)=O)[C@@H](C)O)C(C)C)[C@@H](C)O [Example 117] (H-K([γGlu-C20 diacid])CNTATCATQRLAEFLRHSSPNFGAIPSSTNVGPRTY-NH2; disulfide 2-7; N-terminus assumed) | 61 | 4 |  |  |
| 45 | CC[C@H](C)[C@H](NC(=O)[C@H](C)NC(=O)CNC(=O)[C@H](Cc1ccccc1)NC(=O)[C@H](CC(N)=O)NC(=O)[C@@H]1CCCN1C(=O)[C@H](CO)NC(=O)[C@H](CO)NC(=O)[C@H](Cc1c[nH]cn1)NC(=O)[C@H](CCCNC(=N)N)NC(=O)[C@H](CC(C)C)NC(=O)[C@H](Cc1ccccc1)NC(=O)[C@H](CCC(=O)O)NC(=O)[C@H](C)NC(=O)[C@H](CC(C)C)NC(=O)[C@H](CCCNC(=N)N)NC(=O)[C@H](CCC(N)=O)NC(=O)[C@@H](NC(=O)[C@H](C)NC(=O)[C@@H]1CSSC[C@H](NC(=O)[C@@H](N)CCCCNC(=O)CC[C@H](NC(=O)CC[C@H](NC(=O)CCCCCCCCCCCCCCCCCCC(=O)O)C(=O)O)C(=O)O)C(=O)N[C@@H](CC(N)=O)C(=O)N[C@@H]([C@@H](C)O)C(=O)N[C@@H](C)C(=O)N[C@@H]([C@@H](C)O)C(=O)N1)[C@@H](C)O)C(=O)N1CCC[C@H]1C(=O)N[C@@H](CO)C(=O)N[C@@H](CO)C(=O)N[C@H](C(=O)N[C@@H](CC(N)=O)C(=O)N[C@H](C(=O)NCC(=O)N[C@@H](Cc1c[nH]cn1)C(=O)N[C@@H](CCC(=O)O)C(=O)N[C@H](C(=O)N[C@@H](Cc1ccc(O)cc1)C(N)=O)[C@@H](C)O)C(C)C)[C@@H](C)O [Example 104] (H-K([γGlu-γGlu-C20 diacid])CNTATCATQRLAEFLRHSSPNFGAIPSSTNVGHETY-NH2; disulfide 2-7; N-terminus assumed) | 31 | 28 |  |  |
